“Also recorded” adds a separate entry of the source.
T1: EpCAM (Homo sapiens, UniProt P16422)
T1 sequence (P16422 24-314): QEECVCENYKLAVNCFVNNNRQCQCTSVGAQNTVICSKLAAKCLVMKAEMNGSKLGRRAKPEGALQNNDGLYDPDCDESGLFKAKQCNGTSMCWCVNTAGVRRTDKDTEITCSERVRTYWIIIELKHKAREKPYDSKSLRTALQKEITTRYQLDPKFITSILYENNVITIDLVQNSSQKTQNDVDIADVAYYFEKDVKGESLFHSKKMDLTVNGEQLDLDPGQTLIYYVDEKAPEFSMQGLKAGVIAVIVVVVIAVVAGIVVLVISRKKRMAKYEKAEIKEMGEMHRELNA


Experiments:
HCT116 cells = experiment: Transwell migration/invasion and wound healing assay, HCT116; type: cell-based, human; conditions: for EpEX-induced invasion: 50 nM EpEX, LY 25 μM, U0 20 μM, PF 10 μM, Transwell with matrigel, FIG. 4K; for EpEX-induced migration and invasion: HCT116 cells, discussion statement
Method: FIGS. 3A to 3H. EpEX induces the activation of ERK and FAK-AKT signaling pathway. Wild type (WT) or EpCAM knockout (KO) HCT116 cells after EpEX-His treatment. (FIG. 3A) The levels of phosphorylated HGFR, AKT, FAK, GSK3β, ERK, ADAM17, and presenilin 2 were assayed by Western blotting. (FIG. 3B) Colony formation was examined by crystal violet staining. (FIG. 3C) HCT116 cells were treated with TAPI (ADAM17 inhibitor) or DAPT (γ-secretase inhibitor) for 24 hours, and the phosphorylation of HGFR, AKT, and ERK was analyzed by Western blotting, and EpEX protein level in culture medium was examined by immunoprecipitation and Western blotting. (FIG. 3D) HCT116 and HT29 cells were starved for 16 h, then treated with EpEX-His (50 nM) and HGF (0.5 nM) for 15 min. The levels of phosphorylated HGFR, AKT, and ERK were examined by Western blotting. (FIG. 3E) HCT116 cells were starved for 16 h, then treated with 50 nM EpEX-His for 15 min. HGFR inhibitor SU11274 (SU, 10 μM), AKT inhibitor LY294002 (LY, 25 μM), ERK inhibitor U0126 (U0, 20 μM), or FAK inhibitor PF-562271 (PF, 10 μM) were applied 1 h before EpEX treatment. Phosphorylation of AKT, ERK, and FAK was examined by Western blotting. (FIG. 3F) HCT116 cells were starved for 16 h, then treated with 50 nM EpEX, and SU (10 μM), LY (25 μM), U0 (20 μM) or PF (10 μM). Colony formation was examined by crystal violet staining after treatment for 7 days. The relative colony densities are shown. Migration ability was examined by the (FIG. 3G) wound healing assay at the indicated times. (FIG. 3H) The numbers of migration cell was assessed by a Transwell after treatment for 24 h.
FIGS. 4A to 4L. EpEX induces EMT and invasion by stabilizing β-catenin and Snail through decreasing GSK3β activity. (FIG. 4A) The protein expression of EMT markers and regulators was detected by Western blotting in Wild-type (WT) or EpCAM knockout (KO) HCT116 cells after EpEX treatment. (FIG. 4B) Cell invasion was examined by Transwell chamber assay with matrigel. (FIG. 4C) WT or KO HCT116 and HT29 cells were starved for 16 h, then treated with 0.5 nM of HGF with 2% FBS for 24 h. EMT-related protein expression (E-cadherin, vimentin, and Snail) was examined by Western blotting. (FIG. 4D) WT or KO HCT116 and HT29 cells were treated with HGF (0.5 nM) for 24 h. Invasion by HCT116 and HT29 cells was examined by Transwell chamber assay with matrigel. (FIG. 4E) HCT116 and HT29 cells were starved for 16 h, then treated with 0.5 nM of HGF with 2% FBS for 24 h. EMT-related protein expression (E-cadherin, Vimentin, and Snail) was examined by Western blotting. (FIG. 4F) HCT116 and HT29 cells were starved for 16 h, then treated with 0.5 nM of HGF with 2% FBS for 24 h. Cell invasion was assessed by a Transwell assay with matrigel. (FIG. 4G) HCT116 cells after shLuc and shHGFR treatment were treated with 50 nM of EpEX-His. HCT116 cells after shLuc and shHGFR treatment were treated with 50 nM of EpEX-His with 2% FBS for 24 h. EMT-related protein expression (E-cadherin, Vimentin, and Snail) was examined by Western blotting. (FIG. 4H) Cell invasion was examined by Transwell chamber assay with matrigel. (FIG. 4I) Starved HCT116 cells were treated SU (10 μM) for 1 h, followed by treatment with EpEX-His (50 nM) for 24 h. Phosphorylated GSK3β, active-β-catenin, and Snail were detected by Western blotting. (FIG. 4J) HCT116 cells were starved for 16 h, then treated with 50 nM EpEX-His for 24 min. AKT inhibitor LY294002 (25 μM), ERK inhibitor U0126 (20 μM), or PF-562271 (10 μM) were applied 1 h before EpEX treatment. Protein expression of phosphorylated GSK3β and Snail was examined by Western blotting. (FIG. 4K) HCT116 cells were starved for 16 h, then treated with 50 nM EpEX, and SU (10 μM), LY (25 μM), UO (20 μM) or PF (10 μM). Cell invasion was examined by Transwell chamber assay with matrigel. (FIG. 4L) Protein expression was analyzed by Western blotting in EpEX-His (50 nM) treated HCT116 cells after treatment with or without 2 μM GSK3β inhibitor (BIO) for 24 h. […]

EpCAM = target: T1, EpCAM; conditions: cited from earlier work
cancer cells = conditions: comparison in the description; previous work; cited from earlier work

| Molecule | EpEX-induced invasion (HCT116 cells; HCT116) | EpEX-induced migration and invasion (HCT116 cells) | inducing apoptosis of cancer cells (cancer cells) | further results |
| --- | --- | --- | --- | --- |
| CN(c1ncccc1CNc1nc(Nc2ccc3c(c2)CC(=O)N3)ncc1C(F)(F)F)S(C)(=O)=O [PF-562271] | suppressed | attenuate EpEX-induced migration and invasion | – | – |
| N#CC(=C(/N)Sc1ccccc1N)/C(C#N)=C(\N)Sc1ccccc1N [U0126] | suppressed | attenuate EpEX-induced migration and invasion | – | – |
| Cc1[nH]c(C=C2C(=O)Nc3ccc(S(=O)(=O)N(C)c4cccc(Cl)c4)cc32)c(C)c1C(=O)N1CCN(C)CC1 (stereo in doubt) [SU11274, (3Z)-N-(3-Chlorophenyl)-3-({3,5-dimethyl-4-[(4-methylpiperazin-1-yl)carbonyl]-1H-pyrrol-2-yl}methylene)-N-methyl-2-oxo-2,3-dihydro-1H-indole-5-sulfonamide] | – | attenuate EpEX-induced migration and invasion | – | – |
| MT201: human anti-EpCAM antibody, adecatumumab (MT201) | – | – | failing to | EpCAM domains bound (EpCAM; other anti-EpCAM antibodies, comparison in the description): target only the well-described EGF I domain of EpCAM; also recorded: binding to domain I only |
| EpAb2-6: anti-EpCAM neutralizing monoclonal antibody targeting EpEX; VH SEQ ID NO: 15, VL SEQ ID NO: 16 (antibody, listed as Homo sapiens, V domains shown) VH: VKLQESGPELKKPGETVKISCKASGYTFTDYSMHWVKQAPGKGLKWMGWINTETGEPTYADDFKGRFAFSLETSASTAYLQINNLKNEDTATYFCARTAVYWGQGTTVTVSS VL: DIQMTQSPSSLSASLGERVSLTCRASQEISVSLSWLQQEPDGTIKRLIYATSTLDSGVPKRFSGSRSGSDYSLTISSLESEDFVDYYCLQYASYPWTFGGGTKLEIKRADAAPTVS | – | – | induces cancer cell apoptosis | invasion and migration activities of HCT116 cells (HCT116 cells; EpAb2-6 10 μg/ml, wound healing, Transwell with matrigel 24 h): significantly reduced; also recorded: attenuate the invasion and migration capacity of HCT116 cells; effects of EpAb2-6 on invasion and migration when treated with HGF after EpAb2-6 (HCT116 cells; HCT116, EpAb2-6 10 μg/ml and HGF 0.5 nM, FIGS. 6C and 6D): partially blunted; binding epitope in EpCAM (EpCAM; previous study (Liao et al., 2015)): LYD motif |

— patent publication US20250269018A1, “COMBINED CANCER THERAPY WITH AN EPITHELIAL CELL ADHESION MOLECULE (EPCAM) INHIBITOR AND A HEPATOCYTE GROWTH FACTOR RECEPTOR (HGFR) INHIBITOR” (ACADEMIA SINICA, priority 2021, published 2025)
